Tested on: OVCAR-5 complex spheroid (HUVEC/MSC), viability % T/C
Assay: Anticancer human tumor OVCAR-5 cell line growth inhibition [Asc];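 also: spheroids exposed to agents for 7 days before readout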;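 as to viability, T/C: 100% = DMSO vehicle-treated wells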
Conditions: for IC50: curve of first compound; for viability, T/C: stronger effect = lower value
Method: Multicellular complex tumor spheroid response to apoptosis pathway targeting inhibitors Alrizomadlin, Pelcitoclax, and Dasminapant in combination with a variety of drugs and investigational agents in selected tumor cell lines
The MDM2 inhibitor alrizomadlin, the Bcl-2/Bcl-xL inhibitor pelcitoclax, and the IAPs inhibitor dasminapant were evaluated both individually and in combination with standard of care and investigational anticancer small molecules within a complex spheroid model of solid tumors. . Complex spheroids include a stromal component modeled by human endothelial cells (HUVEC) and fibroblasts modeled by human mesenchymal stem cells (MSCs). The concentration ranges selected for each drug and investigational agent were based upon clinically achievable concentrations if the clinical Cmax of the agent was known.
Compounds. The drugs and investigational agents: alrizomadlin (APG-115; NSC831270), pelcitoclax (APG-1252; NSC835773), dasminapant (APG-1387;NSC834197), TAK-243 (NSC785004), copanlisib (NSC809693), olaparib (NSC753686), talazoparib (NSC767125), cobimetinib (NSC 768068), eltanexor (KPT-8602, NSC 794443), abemaciclib (NSC 768073), sotorasib (NSC818433), adagrasib (NSC 831453), MRTX-1133 (NSC 836407), Iadademestat (ORY1001, NSC 806812), and RMC-4630 (NSC839698), were obtained from the NCI Developmental Therapeutics Program Chemical Repository. The FDA-approved anticancer drug set is available from the Developmental Therapeutics Program at https://dtp.cancer.gov/organization/dscb/obtaining/available plates.htm. […] The stock solutions were prepared in dimethyl sulfoxide (DMSO, Sigma-Aldrich, St. Louis, MO, cat. D2650) at 800-fold the tested concentration and stored at -70 degrees C prior to their use. All drugs and investigational agents were tested over a range starting from a high concentration at or near the clinical Cmax and decreasing in half-log increments. If the clinical Cmax for an agent had not been determined, the highest concentration tested was 10 microM.
The patient-derived cancer (PDC) cell lines include five colon adenocarcinomas: 186277-243-T-J2-PDC, 616215-338-R-J1-PDC, 439559-082-T-J2-PDC, 463943-066-T-J2-PDC, and 519858-162-T-J1-PDC; three pancreatic carcinomas: 323965-272-R-J2-PDC, 521955-158-R6-J3-PDC, and 521955-158-R2-J5-PDC; two uterine sarcomas: 327498-152-R-J2-PDC and 993429-296-R-J1-PDC; two rhabdomyosarcomas: 755483-174-R-J1-PDC and 772245-204-R-J1-PDC; two soft tissue sarcomas: 126254-015-R-J1-PDC and 494315-158-R-J1-PDC; two malignant fibrous histiocytomas: 317291-083-R-J1-PDC and 596521-263-R-J1-PDC; two breast carcinomas: 171881-019-R-J1-PDC and 885512-296-R-J2-PDC; and one ovarian carcinoma: 6556581-035-R-J-PDC were obtained from the NCI PDMR, (https://pdmr.cancer.gov). The established cell lines HSSY-2 synovial sarcoma (RRID:CVCL 8719), SYO-1 synovial sarcoma (RRID:CVCL_7146), MPNST malignant peripheral neural sheath tumor were obtained from the Sloan Kettering Institute. The following established cell lines were purchased from the American Type Culture Collection (ATCC, Manassas, VA), Sor the received from the NCI repository:, PANC-1 pancreatic carcinoma (CRL-1469, RRID:CVCL_0480), OVCAR-5 ovarian carcinoma (RRID:CVCL_1628), OVCAR-8 ovarian carcinoma (RRID:CVCL_1629), , MCF-7 breast carcinoma (CRL-12584, RRID:CVCL_0031), MDA-MB-231 breast carcinoma (CRL-12532, RRID:CVCL_0062), NCI-H1876 small cell lung carcinoma (CRL-5902, RRID:CVCL_1503), NCI-H510A small cell lung carcinoma (HTB-184, RRID:CVCL_1565), NCI-H1417 (CRL-5869, RRID:CVCL_1469), and NCI-H196 small cell lung carcinoma (CRL-5823, RRID:CVCL_1509). Dr. Peter Houghton (Greehey Children's Cancer Research Institute, University of Texas Health Science Center, San Antonio, TX) provided Rh-18 rhabdomyosarcoma (RRID:CVCL_1659). Pooled donor human umbilical vein endothelial cells (HUVEC, Lonza, cat. CC-2519) and human mesenchymal stem cells (hMSC, Lonza, cat. PT-2501) were purchased from Lonza (Walkersville, MD).
Cell Culture. […]

CNC(C)C(=O)NC1CN(S(=O)(=O)c2cccc(S(=O)(=O)N3CCC4CCC(C(=O)NC(c5ccccc5)c5ccccc5)N4C(=O)C(NC(=O)C(C)NC)C3)c2)CCC2CCC(C(=O)NC(c3ccccc3)c3ccccc3)N2C1=O (stereo not given) + CCN1C(C(=O)NC23CCC(C(=O)O)(CC2)CC3)C(c2cccc(Cl)c2F)C2(C(=O)Nc3cc(Cl)ccc32)C12CCCCC2
IC50 (second compound 0.03 µM): > 1 µM | IC50 (second compound 0.0949 µM): > 1 µM | IC50 (second compound 0.3 µM): > 1 µM | IC50 (second compound 0.949 µM): > 1 µM | IC50 (second compound 3 µM): > 1 µM | viability, T/C (second compound 0.03 µM, first compound 0.00316 µM): 97.3% | viability, T/C (second compound 0.03 µM, first compound 0.01 µM): 107% | viability, T/C (second compound 0.03 µM, first compound 0.0316 µM): 86.2% | viability, T/C (second compound 0.03 µM, first compound 0.1 µM): 84.7% | viability, T/C (second compound 0.03 µM, first compound 0.316 µM): 94.4% | viability, T/C (second compound 0.03 µM, first compound 1 µM): 75% | viability, T/C (second compound 0.0949 µM, first compound 0.00316 µM): 90.5% | viability, T/C (second compound 0.0949 µM, first compound 0.01 µM): 102% | viability, T/C (second compound 0.0949 µM, first compound 0.0316 µM): 80.7% | viability, T/C (second compound 0.0949 µM, first compound 0.1 µM): 77.1% | viability, T/C (second compound 0.0949 µM, first compound 0.316 µM): 78.8% | viability, T/C (second compound 0.0949 µM, first compound 1 µM): 78.3% | viability, T/C (second compound 0.3 µM, first compound 0.00316 µM): 102% | viability, T/C (second compound 0.3 µM, first compound 0.01 µM): 94% | viability, T/C (second compound 0.3 µM, first compound 0.0316 µM): 84.5% | viability, T/C (second compound 0.3 µM, first compound 0.1 µM): 74.7% | viability, T/C (second compound 0.3 µM, first compound 0.316 µM): 87.3% | viability, T/C (second compound 0.3 µM, first compound 1 µM): 95.3% | viability, T/C (second compound 0.949 µM, first compound 0.00316 µM): 109% | viability, T/C (second compound 0.949 µM, first compound 0.01 µM): 102% | viability, T/C (second compound 0.949 µM, first compound 0.0316 µM): 87.5% | viability, T/C (second compound 0.949 µM, first compound 0.1 µM): 70.2% | viability, T/C (second compound 0.949 µM, first compound 0.316 µM): 85.1% | viability, T/C (second compound 0.949 µM, first compound 1 µM): 95% | viability, T/C (second compound 3 µM, first compound 0.00316 µM): 102% | viability, T/C (second compound 3 µM, first compound 0.01 µM): 101% | viability, T/C (second compound 3 µM, first compound 0.0316 µM): 96.7% | viability, T/C (second compound 3 µM, first compound 0.1 µM): 79.9% | viability, T/C (second compound 3 µM, first compound 0.316 µM): 84.4% | viability, T/C (second compound 3 µM, first compound 1 µM): 90.8%

CCN1CCN(Cc2ccc(Nc3ncc(F)c(-c4cc(F)c5nc(C)n(C(C)C)c5c4)n3)nc2)CC1 + Cc1c(S(C)(=O)=O)c(-c2cc(F)cc(N3CCN(c4ccc(NS(=O)(=O)c5ccc(NC(CCN6CCC(C(=O)OCCCP(=O)(O)O)CC6)CSc6ccccc6)c(S(=O)(=O)C(F)(F)F)c5)cc4)CC3)c2)c(-c2ccc(Cl)cc2)n1C(C)C
IC50 (second compound 0.1 µM): > 1 µM | IC50 (second compound 0.316 µM): > 1 µM | IC50 (second compound 1 µM): > 1 µM | IC50 (second compound 3.16 µM): > 1 µM | IC50 (second compound 10 µM): > 1 µM | viability, T/C (second compound 0.1 µM, first compound 0.00316 µM): 94.7% | viability, T/C (second compound 0.1 µM, first compound 0.01 µM): 83.5% | viability, T/C (second compound 0.1 µM, first compound 0.0316 µM): 66% | viability, T/C (second compound 0.1 µM, first compound 0.1 µM): 61.5% | viability, T/C (second compound 0.1 µM, first compound 0.316 µM): 69.6% | viability, T/C (second compound 0.1 µM, first compound 1 µM): 56.1% | viability, T/C (second compound 0.316 µM, first compound 0.00316 µM): 79.4% | viability, T/C (second compound 0.316 µM, first compound 0.01 µM): 74.1% | viability, T/C (second compound 0.316 µM, first compound 0.0316 µM): 68.6% | viability, T/C (second compound 0.316 µM, first compound 0.1 µM): 56.1% | viability, T/C (second compound 0.316 µM, first compound 0.316 µM): 61.8% | viability, T/C (second compound 0.316 µM, first compound 1 µM): 57% | viability, T/C (second compound 1 µM, first compound 0.00316 µM): 80.1% | viability, T/C (second compound 1 µM, first compound 0.01 µM): 80.4% | viability, T/C (second compound 1 µM, first compound 0.0316 µM): 63.5% | viability, T/C (second compound 1 µM, first compound 0.1 µM): 55% | viability, T/C (second compound 1 µM, first compound 0.316 µM): 58.3% | viability, T/C (second compound 1 µM, first compound 1 µM): 50.8% | viability, T/C (second compound 3.16 µM, first compound 0.00316 µM): 77% | viability, T/C (second compound 3.16 µM, first compound 0.01 µM): 72.9% | viability, T/C (second compound 3.16 µM, first compound 0.0316 µM): 63.9% | viability, T/C (second compound 3.16 µM, first compound 0.1 µM): 48.6% | viability, T/C (second compound 3.16 µM, first compound 0.316 µM): 58.4% | viability, T/C (second compound 3.16 µM, first compound 1 µM): 47.9% | viability, T/C (second compound 10 µM, first compound 0.00316 µM): 107% | viability, T/C (second compound 10 µM, first compound 0.01 µM): 97.7% | viability, T/C (second compound 10 µM, first compound 0.0316 µM): 81.5% | viability, T/C (second compound 10 µM, first compound 0.1 µM): 47% | viability, T/C (second compound 10 µM, first compound 0.316 µM): 54.3% | viability, T/C (second compound 10 µM, first compound 1 µM): 49.1%

From PubChem BioAssay AID1963436 (Molecular Pharmacology Branch, DTP, NCI, 2024)
